# The METLIN SMRT retention time set (Domingo-Almenara et al. 2019)
# Test: gradient 5% acetonitrile 3 min, to 50% in 2 min, to 85% in 15 min, held 3 min, 100 µL/min
# Settings: column: Zorbax Extend-C18 2.1 x 50 mm; eluents: water / acetonitrile, 0.1% formic acid
# Outline: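 The mobile phases were water and acetonitrile, each with 0.1% formic acid, pumped at 100 μL/min through a Zorbax Extend-C18 column (2.1 × 50 mm, 1.8 μm). Pure standards were injected as mixtures of ~100 molecules and detected by a quadrupole time-of-flight mass spectrometer in positive and negative ionization mode. Retention time came from computationally picked adduct peaks, each inspected by hand.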
row,RP-LC retention time,SMILES
1,946 s,O=S(=O)(c1cc(-c2nnc(C3CC3)o2)co1)N1CCc2ccccc2C1
2,649 s,Cc1cnc(C(=O)N2CCCCCCNC(=O)[C@@H]3CCC[C@@H]32)cn1
3,1000 s,CCOc1ccc(-n2c(=O)c3sccc3n(Cc3nc(-c4cccc(OC)c4)no3)c2=O)cc1
4,625 s,COc1ccc(C(=O)Nc2c(-c3ccc(F)cc3)nc3ccccn23)cc1OC
5,1240 s,O=C(CCc1nc(-c2ccc(N3CCCC3)cc2)no1)N1CCN(c2ccc(Cl)cc2)CC1
6,563 s,CS(=O)(=O)N1CCC(C(=O)Nc2cc(N3CCOCC3)ncn2)CC1
7,760 s,O=C(c1ccc(-c2noc(C3CC3)n2)cc1)N1CCCN(c2nc3ncccc3o2)CC1
8,965 s,CCN(CC)c1cc2c(cc1NC(=O)COc1ccc(Cl)cc1)n(C)c(=O)c(=O)n2C
9,696 s,COc1ccccc1OCCN1C(=O)CCc2c(C)ncnc21
10,706 s,Cc1ccccc1-c1nc(-c2ccc3c(c2)nnn3CCN2CCOCC2)no1
11,906 s,Cc1ccc2[nH]cc(CCNC(=O)C(C)n3c4ccccc4c4cnn(C)c(=O)c43)c2c1 (stereo not drawn)
12,629 s,CCOC(=O)C1CCCN(C(=O)c2ccc(SCCN3CCCCC3)nc2)C1 (stereo not drawn)
13,1020 s,COc1ccccc1NC(=O)Cn1nc2cc(C)nc(Nc3ccccc3)n2c1=O
14,705 s,Cc1ncc(C(=O)NC2CC2)c(=O)n1CC(=O)Nc1cc(F)ccc1F
15,799 s,Cc1c(F)cccc1NC(=O)N1C[C@@H](F)C[C@H]1C(=O)N1CCc2ccccc2C1
16,624 s,CCCN1CCN(C(=O)CC2CCN(C(=O)c3[nH]c(C)c(C(=O)OC(C)C)c3C)CC2)CC1
17,778 s,COc1ccc(N2C=C(C(=O)N3CCOCC3)S(=O)(=O)c3ccc(F)cc32)cc1
18,1100 s,COC(=O)c1c(NC(=O)N2CCCN(c3nc4cccnc4s3)CC2)sc2c1CCCC2
19,581 s,O=C1CCCN1CCCNc1nc(C2CC2)nc2c1CCC2
20,607 s,CN(C)c1ncncc1N1CCC(C(=O)NC2CCCCC2)CC1
21,736 s,COc1ccc(OC)c(-c2cc(C(=O)NCCn3cnc(-c4ccccc4)cc3=O)[nH]n2)c1
22,798 s,COC(=O)c1c(C)[nH]c(C(=O)N2CCCC(C(=O)NCc3cccc(Cl)c3)C2)c1C (stereo not drawn)

row,RP-LC retention time,SMILES
1,980 s,Cc1nc(-c2ccc3c(c2)CCN3C(=O)Cc2ccsc2)cs1
2,621 s,COCc1ncc(C)n1CC1CN(C(=O)C2(c3ccccc3)CC2)C1
3,661 s,CCC(=O)N1CCCN(C2=NS(=O)(=O)C(c3ccc(Cl)cc3)=C2C)CC1
4,611 s,Cn1nc2n(c1=O)CCN(C(=O)Cc1ccsc1)CC2
5,674 s,Cc1cc(C)c(NC(=O)Cn2cnc(C)c(C)c2=O)c(C)c1
6,888 s,CCc1ccc(NC(=O)Cn2c(=O)n(-c3ccc(F)cc3)c(=O)c3c2cc(C)n3C)cc1
7,608 s,CCCNC(=O)CCc1c(-c2ccc(F)cc2)nc2ccccn12
8,796 s,COC(=O)C1=CN(c2cccc(F)c2)c2ccccc2S1(=O)=O
9,678 s,O=C(NCc1ccc(F)cc1)C1CCc2nc(N3CCCCC3)ncc2C1 (stereo not drawn)
10,1030 s,Cc1cc(C)cc(Nc2nc(C)cc(=O)n2CC(=O)NC(C)CCc2ccccc2)c1 (stereo not drawn)
11,661 s,Cc1occc1C(=O)N1CC(c2nc(CCN(C)C(=O)C3CC3)no2)C1
12,778 s,CC1(C(=O)NC2CCCC2)Cn2cnc(C(=O)NCc3ccccc3F)c2C(=O)N1C1CC1 (stereo not drawn)
13,988 s,CCc1ccc(Oc2cc(N3CCC(C(=O)NCc4ccc(OC)cc4)CC3)ncn2)cc1
14,744 s,Cc1cccc(CN2CCCn3nc(C(=O)NC4CC4)cc3C2=O)c1
15,793 s,Cc1ccc(CNC(=O)c2cccc(-c3nc4cccnc4n3C(C)C)c2)o1
16,707 s,CCC(C)NC(=O)Cn1c(=O)cc(-c2nc(C(C)C)no2)c2ccccc21 (stereo not drawn)
17,857 s,O=C(C1CCN(c2nnc(-c3ccccc3)o2)CC1)N1CCN(c2ccccc2)CC1
18,887 s,CC1CCCN(C(=O)c2cn(-c3cc(-c4nc(C5CC5)no4)ccn3)cn2)C1 (stereo not drawn)
19,575 s,CC(C)(c1ccccc1)c1cc(CN2CCOCC2)c(O)c(CN2CCOCC2)c1
20,681 s,COc1ccccc1NC(=O)N1CCCC(Cn2c(C3CC3)nc3cccnc32)C1 (stereo not drawn)
21,844 s,CCOc1ccccc1N1CCN(C(=O)Cn2ccc3c(c(C)nn3-c3ccccc3)c2=O)CC1
22,858 s,CCOC(=O)c1cccc(N2C=C(C(=O)OC)S(=O)(=O)c3ccccc32)c1

row,RP-LC retention time,SMILES
1,705 s,Cc1nc2cc(N3CCCC(C(=O)NCc4ccccc4)C3)cnc2nc1C (stereo not drawn)
2,729 s,COc1ccc(N2CCN(C(=O)C3CC(=O)N(CCc4ccccc4)C3)CC2)cc1 (stereo not drawn)
3,856 s,COc1ccc(-c2cc3nn(CC(=O)N4CCc5ccccc54)c(=O)n3c(C)n2)cc1
4,859 s,COc1ccc(NC(=O)Cn2nc3c(Oc4cc(C)cc(C)c4)nccn3c2=O)cc1
5,899 s,CC(Oc1ccccc1)c1nc(-c2ccc3c(c2)nnn3CCC(=O)N2CCCC2)no1 (stereo not drawn)
6,1190 s,O=c1c2cc(-c3ccc(F)cc3)nn2cnn1Cc1nc(-c2ccc(Cl)cc2)no1
7,821 s,COc1cccc2sc(N3CCCCC3)nc12
8,1100 s,NC(=O)c1c(NC(=O)CSc2ncnc3sc4c(c23)CCC4)sc2c1CCC2
9,665 s,C[C@@H](NC(=O)c1cccc(Br)c1)C(=O)NCc1cscn1
10,632 s,CCCc1nnc(NC(=O)CSc2ncc(-c3ccccc3)[nH]2)s1
11,890 s,Cc1nnc(SCCC(=O)Nc2nc(-c3ccccc3)ns2)s1
12,967 s,CCOC(=O)c1ccc(NC(=O)C2CCN(c3c(C(=O)N(CC)CC)cnc4snc(C)c34)CC2)cc1
13,736 s,Cc1noc(C)c1C1CCCN1C(=O)Cc1ccccc1F (stereo not drawn)
14,815 s,COc1ccc(Cc2nnc3sc(Cc4ccc(OC)c(OC)c4)nn23)cc1
15,554 s,Cc1cnc(C2CN(Cc3cccc(F)c3)C2)n1CC1CC1
16,974 s,O=C(CN1c2ccc(F)cc2-c2ccccc2S1(=O)=O)Nc1ccc(F)c(F)c1
17,1170 s,COc1cccc(-c2nc(C3CCN(S(=O)(=O)c4ccc(Cl)cc4)CC3)no2)c1
18,1160 s,Cc1csc(-c2cc(S(=O)(=O)N3CCc4ccccc4C3)c(C)s2)n1
19,882 s,CCOc1ccccc1CNC(=O)C1CCN(C(=O)c2sccc2-n2cccc2)CC1
20,886 s,O=C(NCCc1c[nH]c2ccc(Cl)cc12)c1cn2cc(Cl)ccc2n1
21,937 s,CSc1ccccc1-c1nnc(NC(=O)c2cc(Cl)sc2Cl)o1
22,618 s,Cn1c(N2CCCC(C(=O)N3CCN(c4ncccn4)CC3)C2)cc(=O)n(C)c1=O (stereo not drawn)

row,RP-LC retention time,SMILES
1,855 s,O=C(NC1CCCCC1)C1CCCN(C(=O)c2ccc(Cl)cc2)C1 (stereo not drawn)
2,686 s,CCOC(=O)c1cn(CC(=O)NC2CCCC2)c2nc(C)ccc2c1=O
3,599 s,Cc1cc(N2CCN(C(=O)c3ccc(Br)o3)CC2)nc(N2CCOCC2)n1
4,719 s,CCOc1ccccc1N1CCN(C(=O)C2CCN(c3nccc4c(C)nn(CC)c34)CC2)CC1
5,664 s,O=C(CSc1nnc(CNC(=O)c2cccc(C(F)(F)F)c2)o1)NCC1CCCO1 (stereo not drawn)
6,859 s,CC(=O)Nc1cccc(-c2nc(-c3ccc4nnn(C(C)C)c4c3)no2)c1
7,830 s,CCOc1ccc(CNC(=O)c2ccc3c(c2)nc2n3CCN(C3CCCCC3)C2=O)cc1
8,549 s,Cn1ccnc1SCC(=O)c1ccc([N+](=O)[O-])cc1
9,758 s,CCc1noc(NC(C)=O)c1-c1ccc(OC)c(S(=O)(=O)N2CCCCC2)c1
10,628 s,O=C([C@@H]1C[C@H](F)CN1C(=O)Nc1cccc(F)c1)N1CCOCC1
11,1190 s,CCc1nc2cc(-c3noc(-c4ccc(F)cc4)n3)ccc2o1
12,640 s,CN1CCC(NC(=O)C2CCN(c3nc4ccc(-c5ccsc5)nc4s3)CC2)CC1
13,1090 s,O=C(C1CCCCN1S(=O)(=O)c1ccc(F)cc1)N1CCc2ccccc21 (stereo not drawn)
14,734 s,CSc1ccc(CNC(=O)C2CCN(c3cncnc3N3CCCCC3)CC2)cc1
15,770 s,COCCNC(=O)C1CCN(C(=O)c2cc3ccsc3n2Cc2cccc(OC)c2)CC1
16,858 s,CCN1c2ccc(C)cc2C(=O)NC12CCN(C(=O)c1cc(F)cc(F)c1)CC2
17,658 s,COCCNC(=O)C1CCN(C(=O)c2ncn3c2COC(c2ccc(OC)cc2)C3)CC1 (stereo not drawn)
18,619 s,Cc1ccc(NC(=O)c2ccc3c(c2)N(CC(=O)N2CCCC2)C(=O)CO3)nc1
19,640 s,O=C(NC1CCN(c2nnc3ccccn23)CC1)c1cccc(F)c1
20,615 s,Cc1ccc(Oc2cccc(C(=O)NCCNc3cc(-n4cccn4)ncn3)c2)nn1
21,652 s,COCCN1C(=O)Cc2ccccc2C1C(=O)NC(C)C (stereo not drawn)
22,710 s,CN1CCC(C2CCN(S(=O)(=O)c3ccccc3Cl)C2)CC1 (stereo not drawn)
